Measurements: PubChem BioAssay AID1963441 (Molecular Pharmacology Branch, DTP, NCI, 2024)

Tested on: NCI-H1876 complex spheroid growth, % test/control
Assay: Anticancer human tumor NCI-H1876 cell line growth inhibition [Asc];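 further: compound exposure lasted 7 days starting three days after seeding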;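 on viability, T/C: 100% = DMSO vehicle control wells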
Conditions: for IC50: curve of first compound; for viability, T/C: stronger effect = lower value; active means viability on the fitted dose curve at most 10% of control; inactive means the rest
Summary of the method: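 Complex spheroids combining tumor cells with HUVEC endothelial cells and human MSCs, at 37 degrees C, 5% CO2; agents tested alone or combined, half-log dilutions from at or near clinical Cmax, or 10 microM if Cmax unknown.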

[1] = second compound 0.0316 µM, first compound 0.00316 µM
[2] = second compound 0.0316 µM, first compound 0.01 µM
[3] = second compound 0.0316 µM, first compound 0.0316 µM
[4] = second compound 0.0316 µM, first compound 0.1 µM
[5] = second compound 0.0316 µM, first compound 0.316 µM
[6] = second compound 0.0316 µM, first compound 1 µM
[7] = second compound 0.1 µM, first compound 0.00316 µM
[8] = second compound 0.1 µM, first compound 0.01 µM
[9] = second compound 0.1 µM, first compound 0.0316 µM
[10] = second compound 0.1 µM, first compound 0.1 µM
[11] = second compound 0.1 µM, first compound 0.316 µM
[12] = second compound 0.1 µM, first compound 1 µM
[13] = second compound 0.316 µM, first compound 0.00316 µM
[14] = second compound 0.316 µM, first compound 0.01 µM
[15] = second compound 0.316 µM, first compound 0.0316 µM
[16] = second compound 0.316 µM, first compound 0.1 µM
[17] = second compound 0.316 µM, first compound 0.316 µM
[18] = second compound 0.316 µM, first compound 1 µM
[19] = second compound 1 µM, first compound 0.00316 µM
[20] = second compound 1 µM, first compound 0.01 µM
[21] = second compound 1 µM, first compound 0.0316 µM
[22] = second compound 1 µM, first compound 0.1 µM
[23] = second compound 1 µM, first compound 0.316 µM
[24] = second compound 1 µM, first compound 1 µM
[25] = second compound 3.16 µM, first compound 0.00316 µM
[26] = second compound 3.16 µM, first compound 0.01 µM
[27] = second compound 3.16 µM, first compound 0.0316 µM
[28] = second compound 3.16 µM, first compound 0.1 µM
[29] = second compound 3.16 µM, first compound 0.316 µM
[30] = second compound 3.16 µM, first compound 1 µM
[31] = second compound 10 µM, first compound 0.00316 µM
[32] = second compound 10 µM, first compound 0.01 µM
[33] = second compound 10 µM, first compound 0.0316 µM
[34] = second compound 10 µM, first compound 0.1 µM
[35] = second compound 10 µM, first compound 0.316 µM
[36] = second compound 10 µM, first compound 1 µM

CCN1CCN(Cc2ccc(Nc3ncc(F)c(-c4cc(F)c5nc(C)n(C(C)C)c5c4)n3)nc2)CC1 + Cc1c(S(C)(=O)=O)c(-c2cc(F)cc(N3CCN(c4ccc(NS(=O)(=O)c5ccc(NC(CCN6CCC(C(=O)OCCCP(=O)(O)O)CC6)CSc6ccccc6)c(S(=O)(=O)C(F)(F)F)c5)cc4)CC3)c2)c(-c2ccc(Cl)cc2)n1C(C)C
> 1000 nM: IC50 (second compound 0.0316 µM) | IC50 (second compound 0.1 µM) | IC50 (second compound 0.316 µM) | IC50 (second compound 1 µM) | IC50 (second compound 3.16 µM) | IC50 (second compound 10 µM)
inactive: viability, T/C [1] 97.1% | viability, T/C [2] 94% | viability, T/C [3] 97.9% | viability, T/C [4] 98.7% | viability, T/C [5] 117% | viability, T/C [6] 130% | viability, T/C [7] 98.7% | viability, T/C [8] 101% | viability, T/C [9] 100% | viability, T/C [10] 112% | viability, T/C [11] 121% | viability, T/C [12] 127% | viability, T/C [13] 106% | viability, T/C [14] 96.2% | viability, T/C [15] 120% | viability, T/C [16] 106% | viability, T/C [17] 115% | viability, T/C [18] 125% | viability, T/C [19] 101% | viability, T/C [20] 100% | viability, T/C [21] 98.1% | viability, T/C [22] 109% | viability, T/C [23] 121% | viability, T/C [24] 116% | viability, T/C [25] 111% | viability, T/C [26] 104% | viability, T/C [27] 91.8% | viability, T/C [28] 103% | viability, T/C [29] 114% | viability, T/C [30] 110% | viability, T/C [31] 105% | viability, T/C [32] 104% | viability, T/C [33] 94.7% | viability, T/C [34] 111% | viability, T/C [35] 122% | viability, T/C [36] 102%

Cn1ncnc1[C@H]1c2n[nH]c(=O)c3cc(F)cc(c23)N[C@@H]1c1ccc(F)cc1 + Cc1c(S(C)(=O)=O)c(-c2cc(F)cc(N3CCN(c4ccc(NS(=O)(=O)c5ccc(NC(CCN6CCC(C(=O)OCCCP(=O)(O)O)CC6)CSc6ccccc6)c(S(=O)(=O)C(F)(F)F)c5)cc4)CC3)c2)c(-c2ccc(Cl)cc2)n1C(C)C
inactive: viability, T/C (second compound 0.0316 µM, first compound 0.000316 µM) 89.8% | viability, T/C (second compound 0.0316 µM, first compound 0.001 µM) 82.8% | viability, T/C [1] 101% | viability, T/C [2] 94.2% | viability, T/C [3] 106% | viability, T/C [4] 81.6% | viability, T/C (second compound 0.1 µM, first compound 0.000316 µM) 100% | viability, T/C (second compound 0.1 µM, first compound 0.001 µM) 92.9% | viability, T/C [7] 98.4% | viability, T/C [8] 111% | viability, T/C [9] 96.7% | viability, T/C [10] 86.5% | viability, T/C (second compound 0.316 µM, first compound 0.000316 µM) 92% | viability, T/C (second compound 0.316 µM, first compound 0.001 µM) 101% | viability, T/C [13] 95.5% | viability, T/C [14] 110% | viability, T/C [15] 94.7% | viability, T/C [16] 74.3% | viability, T/C (second compound 1 µM, first compound 0.000316 µM) 110% | viability, T/C (second compound 1 µM, first compound 0.001 µM) 89.8% | viability, T/C [19] 94.7% | viability, T/C [20] 94.7% | viability, T/C [21] 91.7% | viability, T/C [22] 64% | viability, T/C (second compound 3.16 µM, first compound 0.000316 µM) 94.2% | viability, T/C (second compound 3.16 µM, first compound 0.001 µM) 95.7% | viability, T/C [25] 94.1% | viability, T/C [26] 92.6% | viability, T/C [27] 81% | viability, T/C [28] 53.7% | viability, T/C (second compound 10 µM, first compound 0.000316 µM) 100% | viability, T/C (second compound 10 µM, first compound 0.001 µM) 106% | viability, T/C [31] 84.2% | viability, T/C [32] 95.9% | viability, T/C [33] 80.4% | viability, T/C [34] 55.8%
> 100 nM: IC50 (second compound 0.0316 µM) | IC50 (second compound 0.1 µM) | IC50 (second compound 0.316 µM) | IC50 (second compound 1 µM) | IC50 (second compound 3.16 µM) | IC50 (second compound 10 µM)

O=C(c1cc(Cc2n[nH]c(=O)c3ccccc23)ccc1F)N1CCN(C(=O)C2CC2)CC1 + Cc1c(S(C)(=O)=O)c(-c2cc(F)cc(N3CCN(c4ccc(NS(=O)(=O)c5ccc(NC(CCN6CCC(C(=O)OCCCP(=O)(O)O)CC6)CSc6ccccc6)c(S(=O)(=O)C(F)(F)F)c5)cc4)CC3)c2)c(-c2ccc(Cl)cc2)n1C(C)C
7790 nM: IC50 (second compound 10 µM)
inactive: viability, T/C [3] 99.6% | viability, T/C [4] 99.1% | viability, T/C [5] 92.8% | viability, T/C [6] 101% | viability, T/C (second compound 0.0316 µM, first compound 3.16 µM) 97.2% | viability, T/C (second compound 0.0316 µM, first compound 10 µM) 74% | viability, T/C [9] 100% | viability, T/C [10] 90.9% | viability, T/C [11] 98.2% | viability, T/C [12] 96.2% | viability, T/C (second compound 0.1 µM, first compound 3.16 µM) 95.9% | viability, T/C (second compound 0.1 µM, first compound 10 µM) 73.6% | viability, T/C [15] 90.2% | viability, T/C [16] 96.7% | viability, T/C [17] 93.5% | viability, T/C [18] 97.9% | viability, T/C (second compound 0.316 µM, first compound 3.16 µM) 96% | viability, T/C (second compound 0.316 µM, first compound 10 µM) 61.2% | viability, T/C [21] 111% | viability, T/C [22] 97.7% | viability, T/C [23] 90.1% | viability, T/C [24] 102% | viability, T/C (second compound 1 µM, first compound 3.16 µM) 99.2% | viability, T/C (second compound 1 µM, first compound 10 µM) 49.8% | viability, T/C [27] 101% | viability, T/C [28] 94.5% | viability, T/C [29] 97.1% | viability, T/C [30] 96% | viability, T/C (second compound 3.16 µM, first compound 3.16 µM) 86.8% | viability, T/C (second compound 3.16 µM, first compound 10 µM) 43.6% | viability, T/C [33] 95.2% | viability, T/C [34] 98.9% | viability, T/C [35] 86.1% | viability, T/C [36] 90.1% | viability, T/C (second compound 10 µM, first compound 3.16 µM) 95.3% | viability, T/C (second compound 10 µM, first compound 10 µM) 38.1%
8470 nM: IC50 (second compound 3.16 µM)
> 10000 nM: IC50 (second compound 0.0316 µM) | IC50 (second compound 0.1 µM) | IC50 (second compound 0.316 µM)
9960 nM: IC50 (second compound 1 µM)

O=C(c1ccc(F)c(F)c1Nc1ccc(I)cc1F)N1CC(O)([C@@H]2CCCCN2)C1 + Cc1c(S(C)(=O)=O)c(-c2cc(F)cc(N3CCN(c4ccc(NS(=O)(=O)c5ccc(NC(CCN6CCC(C(=O)OCCCP(=O)(O)O)CC6)CSc6ccccc6)c(S(=O)(=O)C(F)(F)F)c5)cc4)CC3)c2)c(-c2ccc(Cl)cc2)n1C(C)C
inactive: viability, T/C [1] 102% | viability, T/C [2] 98.9% | viability, T/C [3] 108% | viability, T/C [4] 92.3% | viability, T/C [5] 85.3% | viability, T/C [6] 71.7% | viability, T/C [7] 95.4% | viability, T/C [8] 97.5% | viability, T/C [9] 94.6% | viability, T/C [10] 97.6% | viability, T/C [11] 86.9% | viability, T/C [12] 81% | viability, T/C [13] 96.5% | viability, T/C [14] 102% | viability, T/C [15] 89.5% | viability, T/C [16] 102% | viability, T/C [17] 84.2% | viability, T/C [18] 78.4% | viability, T/C [19] 101% | viability, T/C [20] 102% | viability, T/C [21] 93.9% | viability, T/C [22] 92.1% | viability, T/C [23] 92% | viability, T/C [24] 77.1% | viability, T/C [25] 109% | viability, T/C [26] 98.6% | viability, T/C [27] 91% | viability, T/C [28] 85.8% | viability, T/C [29] 94.2% | viability, T/C [30] 74.9% | viability, T/C [31] 103% | viability, T/C [32] 92.2% | viability, T/C [33] 92.5% | viability, T/C [34] 102% | viability, T/C [35] 93.5% | viability, T/C [36] 79.5%
> 1000 nM: IC50 (second compound 0.0316 µM) | IC50 (second compound 0.1 µM) | IC50 (second compound 0.316 µM) | IC50 (second compound 1 µM) | IC50 (second compound 3.16 µM) | IC50 (second compound 10 µM)
